# Experiments:
# [1] = Infusion generated from the Efflux profile; arterial plasma concentration followed over the infusion period; type: in vivo, patient
# Excerpt: Describing first the preferred method of defining a generalised infusion rate profile as applied to anaesthetic drugs, the method comprises the steps of: • (a) first determining the lean body mass (LBM) of a group of subjects. A convenient way of doing this in human subjects is to use the method described by Hallynck T.H. et al in "Should clearance be normalized to body surface of to lean body mass?" in British Journal of Clinical Pharmacology, p 523-526, Volume 11, (1981), who presented the following formulae:- Males: LBM = 1.10 x weight - 128 x (weight²/height²) Females: LBM = 1.07 x weight - 148 x (weight²/height²) • (b) Following administration of a suitable bolus dose of a desired drug to achieve unconsciousness, the drug is infused at an arbitrary but known rate throughout the infusion. […]
# [2] = plasma concentration, cited from earlier work
# [3] = Plasma Drug Efflux profile derived from actual infusion data (iterative infusion method, scaled to Lean Body Mass); type: in vivo, human subjects; settings: Figure 9, after three iterations
# Excerpt: Central to the approach used in this method is the development of a new concept in pharmacokinetics, the Plasma Drug Efflux. This concept simply stated is that at any instant, if the plasma concentration of a drug is neither rising nor falling, the rate of delivery of the drug to the circulation ie. the infusion rate, must equate to the rate at which the drug is being lost from the circulation. It is - unimportant whether the loss is by distribution, metabolism or excretion.
# Then if drug is administered by some arbitrary infusion scheme Q(t), the plasma concentration is C(t) and the rate of drug loss from the plasma may be called the Plasma Drug Efflux, Ep(t).
# If the plasma drug concentration is constant so that the amount of drug is not changing then the instantaneous rate of drug influx to the plasma (the infusion rate), and the instantaneous concentration in the plasma may be used as an estimate of drug efflux from the plasma, is an estimate of i.e.: [drawing 1]
# The efflux estimate may then be plotted against time, and will essentially describe a dosing-rate/concentration profile as a function of time which will result in a plateau concentration for all time. […]
structure (smiles),measurement,setting,value
C=CCC1(C(C)C#CCC)C(=O)N=C(O)N(C)C1=O (centres unmarked) [methohexitone],arterial plasma drug concentrations,"[1]; infusion by Efflux profile of Figure 9 in a typical patient (Figure 10), over a period of five hours",constant and desired arterial plasma drug concentrations
same,departures from the desired level,"[1]; infusion by Efflux profile, many patients",no material departures from the desired level in any patient
same,concentration likely to result in wakening of the patient,[2]; fall to below,below 3 mg/l
same,concentration at which severe depression of the heart and breathing may occur,[2],10000 ng/mL
same,shape of the Plasma Drug Efflux profile,[3],"bears little relationship to an exponential function, having two distinct humps"

# — patent EP0164904B1, “Method of determining an infusion rate profile and infusion device” (THE UNIVERSITY OF MELBOURNE, priority 1984, dated 1985)
